Our source for the Activity values is ChEMBL document CHEMBL1148569, “Aza-analogues of the marine pyrroloquinoline alkaloids wakayin and tsitsikammamines: synthesis and topoisomerase inhibition” (Bioorg Med Chem Lett, 2006).

Experiment [1] concerns the target T1, DNA topoisomerase 1 (Homo sapiens) (UniProt P11387).
T1 sequence (whole entry): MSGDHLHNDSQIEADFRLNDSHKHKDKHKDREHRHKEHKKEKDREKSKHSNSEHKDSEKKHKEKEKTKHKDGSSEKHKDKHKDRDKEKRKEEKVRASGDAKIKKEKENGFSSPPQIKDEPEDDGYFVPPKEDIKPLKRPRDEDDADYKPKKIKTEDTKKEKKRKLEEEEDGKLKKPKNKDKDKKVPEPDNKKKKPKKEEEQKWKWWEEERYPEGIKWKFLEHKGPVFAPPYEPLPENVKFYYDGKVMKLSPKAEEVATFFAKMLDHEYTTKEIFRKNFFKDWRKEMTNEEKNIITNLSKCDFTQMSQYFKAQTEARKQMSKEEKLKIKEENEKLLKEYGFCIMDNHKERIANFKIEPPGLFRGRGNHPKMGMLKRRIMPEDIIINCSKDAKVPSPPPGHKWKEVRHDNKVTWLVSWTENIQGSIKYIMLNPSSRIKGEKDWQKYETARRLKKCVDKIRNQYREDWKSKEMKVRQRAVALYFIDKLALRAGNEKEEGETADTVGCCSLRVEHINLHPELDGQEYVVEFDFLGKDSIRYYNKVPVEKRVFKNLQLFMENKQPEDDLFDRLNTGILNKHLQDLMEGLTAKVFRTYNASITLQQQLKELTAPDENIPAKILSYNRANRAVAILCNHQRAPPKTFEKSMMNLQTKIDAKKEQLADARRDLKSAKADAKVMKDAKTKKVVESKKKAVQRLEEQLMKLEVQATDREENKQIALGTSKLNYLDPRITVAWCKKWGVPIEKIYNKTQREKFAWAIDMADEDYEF
Kind of experiment: Inhibition of Topoisomerase 1 mediated DNA cleavage activity in a cell free assay at 100 uM.

Experiment [2] has as its target DNA topoisomerase II (Homo sapiens) (UniProt P11388+Q02880). Description: Inhibition of Topoisomerase 2 mediated DNA cleavage activity in a cell free assay at 100 uM. It is filed as protein assay.

The source made the active and inactive calls. The rule behind the calls is not given here.

On to `O=C1c2cc[nH]c2C2=NCCc3n[nH]c1c32`, for which the outcome in experiment [1] and in experiment [2] was inactive.

`O=C1c2[nH]ccc2C2=NCCc3n[nH]c1c32`: in experiment [1], the result was Active. Moreover, the result in experiment [2] was inactive.
